Measurements: ChEMBL document CHEMBL3627615, “Discovery of the disubstituted oxazole analogues as a novel class anti-tuberculotic agents against MDR- and XDR-MTB” (Bioorg Med Chem Lett, 2015)
In brackets after ≈: the same amount, converted by molar mass.

How the values were obtained:
[1] = tested on: Mycobacterium tuberculosis; experiment: Antimycobacterial activity against multidrug-resistant Mycobacterium tuberculosis FJ05120 after 3 to 4 weeks by microplate alamar blue assay; assay type: functional
[2] = tested on: Mycobacterium tuberculosis; experiment: Antimycobacterial activity against extensively drug-resistant Mycobacterium tuberculosis FJ05195 after 3 to 4 weeks by microplate alamar blue assay; assay type: functional

SMILES	MIC90 [1] [µg/mL]	MIC90 [2] [µg/mL]
Cc1ccc(C(=O)C2CCN(Cc3coc(-c4ccc(F)cc4)n3)CC2)cc1C	8 (≈ 20.4 µM)	8 (≈ 20.4 µM)
CC(C)(C)c1ccc(-c2nc(CN3CCC(C(=O)c4ccc5c(c4)OCCO5)CC3)cs2)cc1	> 128	> 128
CC[C@@H](CO)NCCN[C@@H](CC)CO [ETHAMBUTOL]	1 (≈ 4.89 µM)	8 (≈ 39.2 µM)
O=C(c1ccc2c(c1)OCCO2)C1CCN(Cc2coc(-c3ccco3)n2)CC1	32 (≈ 81.1 µM)	32 (≈ 81.1 µM)
COc1ccc(C(=O)C2CCN(Cc3coc(-c4ccc(F)cc4)n3)CC2)cc1	8 (≈ 20.3 µM)	8 (≈ 20.3 µM)
O=C(c1ccc2c(c1)OCCO2)C1CCN(Cc2coc(-c3ccoc3)n2)CC1	32 (≈ 81.1 µM)	64 (≈ 162 µM)
CC(C)(C)c1ccc(-c2nc(CN3CCC(C(=O)c4ccc5c(c4)CCCC5)CC3)co2)cc1	4 (≈ 8.76 µM)	4 (≈ 8.76 µM)
O=C(c1ccc2c(c1)OCCO2)C1CCN(Cc2coc(-c3ccccc3F)n2)CC1	16 (≈ 37.9 µM)	8 (≈ 18.9 µM)
O=C(c1ccc2c(c1)OCCO2)C1CCN(Cc2coc(-c3ccc(F)cc3)n2)CC1	8 (≈ 18.9 µM)	8 (≈ 18.9 µM)
O=C(c1ccc2c(c1)OCCO2)C1CCN(Cc2cc(-c3ccc(F)cc3)on2)CC1	> 128	> 128
COc1ccc(C(=O)C2CCN(Cc3coc(-c4ccc(F)cc4)n3)CC2)cc1OC	16 (≈ 37.7 µM)	16 (≈ 37.7 µM)
O=C(c1ccc2c(c1)OCCO2)C1CCN(Cc2coc(-c3cccc(F)c3)n2)CC1	16 (≈ 37.9 µM)	8 (≈ 18.9 µM)
CN[C@@H]1[C@H](O[C@H]2[C@H](O[C@H]3[C@H](O)[C@@H](O)[C@H](N=C(N)N)[C@@H](O)[C@@H]3N=C(N)N)O[C@@H](C)[C@]2(O)C=O)O[C@@H](CO)[C@H](O)[C@H]1O [STREPTOMYCIN]	< 0.5	64 (≈ 110 µM)
COc1ccc(-c2nc(CN3CCC(C(=O)c4ccc5c(c4)OCCO5)CC3)co2)cc1	8 (≈ 18.4 µM)	4 (≈ 9.21 µM)
CO[C@H]1/C=C/O[C@@]2(C)Oc3c(C)c(O)c4c(O)c(c(/C=N/N5CCN(C)CC5)c(O)c4c3C2=O)NC(=O)/C(C)=C\C=C\[C@H](C)[C@H](O)[C@@H](C)[C@@H](O)[C@@H](C)[C@H](OC(C)=O)[C@@H]1C [RIFAMPIN]	> 256	> 256
O=C(c1ccccc1)C1CCN(Cc2coc(-c3ccc(F)cc3)n2)CC1	4 (≈ 11 µM)	4 (≈ 11 µM)
O=C(c1ccc2c(c1)CCCC2)C1CCN(Cc2coc(-c3ccc(F)cc3)n2)CC1	4 (≈ 9.56 µM)	4 (≈ 9.56 µM)
O=C(c1ccc2c(c1)OCCO2)C1CCN(Cc2coc(-c3ccc(Cl)cc3)n2)CC1	8 (≈ 18.2 µM)	4 (≈ 9.11 µM)
Cc1ccc(-c2nc(CN3CCC(C(=O)c4ccc5c(c4)OCCO5)CC3)co2)cc1	64 (≈ 153 µM)	64 (≈ 153 µM)
O=C(c1ccc2c(c1)OCCO2)C1CCN(Cc2coc(-c3cccnc3)n2)CC1	32 (≈ 78.9 µM)	32 (≈ 78.9 µM)
O=C(c1ccc(F)c(F)c1)C1CCN(Cc2coc(-c3ccc(F)cc3)n2)CC1	8 (≈ 20 µM)	8 (≈ 20 µM)
Cc1ccc(C(=O)C2CCN(Cc3coc(-c4ccc(F)cc4)n3)CC2)cc1	16 (≈ 42.3 µM)	8 (≈ 21.1 µM)
O=C(c1ccc2c(c1)OCCO2)C1CCN(Cc2coc(-c3ccc(Br)cc3)n2)CC1	8 (≈ 16.6 µM)	8 (≈ 16.6 µM)
O=C(c1ccc2c(c1)OCCO2)C1CCN(Cc2coc(-c3ccc(F)c(F)c3)n2)CC1	8 (≈ 18.2 µM)	8 (≈ 18.2 µM)
NNC(=O)c1ccncc1 [ISONIAZID]	1 (≈ 7.29 µM)	4 (≈ 29.2 µM)
O=C(c1ccc2c(c1)OCCO2)C1CCN(Cc2coc(-c3ccc(C(F)(F)F)cc3)n2)CC1	64 (≈ 135 µM)	64 (≈ 135 µM)
O=C(c1ccc2c(c1)OCCO2)C1CCN(Cc2coc(-c3ccccc3)n2)CC1	8 (≈ 19.8 µM)	8 (≈ 19.8 µM)
O=C(c1ccc2c(c1)OCCO2)C1CCN(Cc2csc(-c3ccc(Cl)cc3)n2)CC1	> 128	> 128
CC(C)(C)c1ccc(-c2nc(CN3CCC(C(=O)c4ccc5c(c4)OCCO5)CC3)co2)cc1	2 (≈ 4.34 µM)	1 (≈ 2.17 µM)
